Results reported in PubChem BioAssay (NCI).
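Test compounds were applied to cells in 96-well plates for 48 hours at 5 doses. GI50 = concentration required for 50% inhibition of growth. The concentration for full growth arrest is given as TGI.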

Tests used:
Experiment in all cases: DTP human tumour cell line panel, 48 h
OVCAR-3 ovarian = test system: OVCAR-3 ovarian
HT29 colon = test system: HT29 colon
TK-10 renal = test system: TK-10 renal
RXF 393 renal = test system: RXF 393 renal
RPMI-8226 leukemia = test system: RPMI-8226 leukemia
SNB-19 CNS = test system: SNB-19 CNS
CAKI-1 renal = test system: CAKI-1 renal
T-47D breast = test system: T-47D breast
HS 578T breast = test system: HS 578T breast
OVCAR-8 ovarian = test system: OVCAR-8 ovarian
ACHN renal = test system: ACHN renal
UO-31 renal = test system: UO-31 renal
SK-MEL-5 melanoma = test system: SK-MEL-5 melanoma
MDA-MB-231 breast = test system: MDA-MB-231 breast
KM12 colon = test system: KM12 colon
SK-MEL-2 melanoma = test system: SK-MEL-2 melanoma
SF-539 CNS = test system: SF-539 CNS
HCC-2998 colon = test system: HCC-2998 colon
HCT-116 colon = test system: HCT-116 colon
786-0 renal = test system: 786-0 renal
BT-549 breast = test system: BT-549 breast
MALME-3M melanoma = test system: MALME-3M melanoma
NCI-H23 lung = test system: NCI-H23 lung
SR leukemia = test system: SR leukemia
PC-3 prostate = test system: PC-3 prostate
SK-OV-3 ovarian = test system: SK-OV-3 ovarian
UACC-62 melanoma = test system: UACC-62 melanoma
HCT-15 colon = test system: HCT-15 colon
SK-MEL-28 melanoma = test system: SK-MEL-28 melanoma
CCRF-CEM leukemia = test system: CCRF-CEM leukemia
OVCAR-4 ovarian = test system: OVCAR-4 ovarian
COLO 205 colon = test system: COLO 205 colon
LOX IMVI melanoma = test system: LOX IMVI melanoma
SF-268 CNS = test system: SF-268 CNS
HL-60(TB) leukemia = test system: HL-60(TB) leukemia
SW-620 colon = test system: SW-620 colon
SNB-75 CNS = test system: SNB-75 CNS
A498 renal = test system: A498 renal
A549 NSCLC = test system: A549 NSCLC
SN12C renal = test system: SN12C renal
SF-295 CNS = test system: SF-295 CNS
HOP-92 NSCLC = test system: HOP-92 NSCLC
DU-145 prostate = test system: DU-145 prostate
HOP-62 NSCLC = test system: HOP-62 NSCLC
UACC-257 melanoma = test system: UACC-257 melanoma
NCI-H226 lung = test system: NCI-H226 lung
K-562 leukemia = test system: K-562 leukemia
NCI/ADR-RES ovarian = test system: NCI/ADR-RES ovarian
EKVX NSCLC = test system: EKVX NSCLC
IGROV1 ovarian = test system: IGROV1 ovarian
NCI-H522 lung = test system: NCI-H522 lung
NCI-H460 lung = test system: NCI-H460 lung
OVCAR-5 ovarian = test system: OVCAR-5 ovarian
MOLT-4 leukemia = test system: MOLT-4 leukemia

What does the source list for `O=C(Nc1ccc(-c2nc(-c3cccc(O)c3)c(-c3ccnc(Br)c3)[nH]2)cc1)c1ccccc1`?
GI50 (OVCAR-3 ovarian): 2090 nM; TGI (OVCAR-3 ovarian): 5670 nM; GI50 (HT29 colon): 2850 nM; TGI (HT29 colon): > 100000 nM; GI50 (TK-10 renal): 2920 nM; TGI (TK-10 renal): 8030 nM; GI50 (RXF 393 renal): 294 nM; TGI (RXF 393 renal): 869 nM; GI50 (RPMI-8226 leukemia): 595 nM; TGI (RPMI-8226 leukemia): 2890 nM; GI50 (SNB-19 CNS): 1830 nM; TGI (SNB-19 CNS): 7140 nM; GI50 (CAKI-1 renal): 1980 nM; TGI (CAKI-1 renal): 5800 nM; GI50 (T-47D breast): 1730 nM; TGI (T-47D breast): 4730 nM; GI50 (HS 578T breast): 308 nM; TGI (HS 578T breast): 946 nM; GI50 (OVCAR-8 ovarian): 2600 nM; TGI (OVCAR-8 ovarian): > 100000 nM; GI50 (ACHN renal): 2430 nM; TGI (ACHN renal): 7420 nM; GI50 (UO-31 renal): 2560 nM; TGI (UO-31 renal): 6560 nM; GI50 (SK-MEL-5 melanoma): 1790 nM; TGI (SK-MEL-5 melanoma): 3230 nM; GI50 (MDA-MB-231 breast): 2590 nM; TGI (MDA-MB-231 breast): 17100 nM; GI50 (KM12 colon): 2440 nM; TGI (KM12 colon): 7130 nM; GI50 (SK-MEL-2 melanoma): 2020 nM; TGI (SK-MEL-2 melanoma): 5460 nM; GI50 (SF-539 CNS): 1510 nM; TGI (SF-539 CNS): 4780 nM; GI50 (HCC-2998 colon): 2270 nM; TGI (HCC-2998 colon): 6370 nM; GI50 (HCT-116 colon): 2260 nM; TGI (HCT-116 colon): 7600 nM; GI50 (786-0 renal): 1080 nM; TGI (786-0 renal): 4030 nM; GI50 (BT-549 breast): 1800 nM; TGI (BT-549 breast): 5790 nM; GI50 (MALME-3M melanoma): 1830 nM; TGI (MALME-3M melanoma): 4710 nM; GI50 (NCI-H23 lung): 2040 nM; TGI (NCI-H23 lung): 4780 nM; GI50 (SR leukemia): 1260 nM; TGI (SR leukemia): > 100000 nM; GI50 (PC-3 prostate): 1900 nM; TGI (PC-3 prostate): 5840 nM; GI50 (SK-OV-3 ovarian): 2680 nM; TGI (SK-OV-3 ovarian): 7090 nM; GI50 (UACC-62 melanoma): 1730 nM; TGI (UACC-62 melanoma): 4090 nM; GI50 (HCT-15 colon): 2010 nM; TGI (HCT-15 colon): 7290 nM; GI50 (SK-MEL-28 melanoma): 1760 nM; TGI (SK-MEL-28 melanoma): 4820 nM; GI50 (CCRF-CEM leukemia): 1320 nM; TGI (CCRF-CEM leukemia): > 100000 nM; GI50 (OVCAR-4 ovarian): 2270 nM; TGI (OVCAR-4 ovarian): 6090 nM; GI50 (COLO 205 colon): 1990 nM; TGI (COLO 205 colon): 4840 nM; GI50 (LOX IMVI melanoma): 1520 nM; TGI (LOX IMVI melanoma): 3950 nM; GI50 (SF-268 CNS): 2210 nM; TGI (SF-268 CNS): 6950 nM; GI50 (HL-60(TB) leukemia): 1370 nM; TGI (HL-60(TB) leukemia): 6820 nM; GI50 (SW-620 colon): 2370 nM; TGI (SW-620 colon): 7170 nM; GI50 (SNB-75 CNS): 286 nM; TGI (SNB-75 CNS): 3370 nM; GI50 (A498 renal): 1660 nM; TGI (A498 renal): 4530 nM; GI50 (A549 NSCLC): 2950 nM; TGI (A549 NSCLC): > 100000 nM; GI50 (SN12C renal): 2680 nM; TGI (SN12C renal): 8950 nM; GI50 (SF-295 CNS): 340 nM; TGI (SF-295 CNS): 1160 nM; GI50 (HOP-92 NSCLC): 1840 nM; TGI (HOP-92 NSCLC): 4730 nM; GI50 (DU-145 prostate): 2760 nM; TGI (DU-145 prostate): 8740 nM; GI50 (HOP-62 NSCLC): 2540 nM; TGI (HOP-62 NSCLC): 9050 nM; GI50 (UACC-257 melanoma): 2210 nM; TGI (UACC-257 melanoma): 5840 nM; GI50 (NCI-H226 lung): 2330 nM; TGI (NCI-H226 lung): 6530 nM; GI50 (K-562 leukemia): 2120 nM; TGI (K-562 leukemia): > 100000 nM; GI50 (NCI/ADR-RES ovarian): 3000 nM; TGI (NCI/ADR-RES ovarian): 12400 nM; GI50 (EKVX NSCLC): 2140 nM; TGI (EKVX NSCLC): 6190 nM; GI50 (IGROV1 ovarian): 2620 nM; TGI (IGROV1 ovarian): 6530 nM; GI50 (NCI-H522 lung): 2010 nM; TGI (NCI-H522 lung): 5350 nM; GI50 (NCI-H460 lung): 2450 nM; TGI (NCI-H460 lung): 6520 nM; GI50 (OVCAR-5 ovarian): 2920 nM; TGI (OVCAR-5 ovarian): 19100 nM; GI50 (MOLT-4 leukemia): 2000 nM; TGI (MOLT-4 leukemia): 7480 nM
